6 compounds from PubChem BioAssay AID1259407 (Chemical Carcinogenesis Research Information System (CCRIS), 2018) can be followed below.

The series concerns CCRIS mutagenicity, Ames/micronucleus/aberration tests. Kind of series: CCRIS mutagenicity studies.
The mark [1] stands for this setting: Test System: AMES SALMONELLA TYPHIMURIUM, Strain/Indicator: TA98, Metabolic Activation: NONE, Method: STANDARD PLATE.
Where [2] appears, read: Test System: AMES SALMONELLA TYPHIMURIUM, Strain/Indicator: TA100, Metabolic Activation: NONE, Method: STANDARD PLATE.
[3] abbreviates: Test System: AMES SALMONELLA TYPHIMURIUM, Strain/Indicator: TA98, Metabolic Activation: HAMSTER, LIVER, S-9, AROCLOR 1254 (10%), Method: PREINCUBATION
Setting [4] is: Test System: AMES SALMONELLA TYPHIMURIUM, Strain/Indicator: TA98, Metabolic Activation: NONE, Method: PREINCUBATION
Where [5] appears, read: Test System: AMES SALMONELLA TYPHIMURIUM, Strain/Indicator: TA98, Metabolic Activation: RAT, LIVER, S-9, AROCLOR 1254 (10%), Method: PREINCUBATION
[6] abbreviates: Test System: AMES SALMONELLA TYPHIMURIUM, Strain/Indicator: TA100, Metabolic Activation: HAMSTER, LIVER, S-9, AROCLOR 1254 (10%), Method: PREINCUBATION
[7] abbreviates: Test System: AMES SALMONELLA TYPHIMURIUM, Strain/Indicator: TA100, Metabolic Activation: NONE, Method: PREINCUBATION
Where [8] appears, read: Test System: AMES SALMONELLA TYPHIMURIUM, Strain/Indicator: TA100, Metabolic Activation: RAT, LIVER, S-9, AROCLOR 1254 (10%), Method: PREINCUBATION
Setting [9] is: Test System: AMES SALMONELLA TYPHIMURIUM, Strain/Indicator: TA1535, Metabolic Activation: HAMSTER, LIVER, S-9, AROCLOR 1254 (10%), Method: PREINCUBATION
Where [10] appears, read: Test System: AMES SALMONELLA TYPHIMURIUM, Strain/Indicator: TA1535, Metabolic Activation: NONE, Method: PREINCUBATION
[11] abbreviates: Test System: AMES SALMONELLA TYPHIMURIUM, Strain/Indicator: TA1535, Metabolic Activation: RAT, LIVER, S-9, AROCLOR 1254 (10%), Method: PREINCUBATION
[12] abbreviates: Test System: AMES SALMONELLA TYPHIMURIUM, Strain/Indicator: TA1537, Metabolic Activation: HAMSTER, LIVER, S-9, AROCLOR 1254 (10%), Method: PREINCUBATION
[13] abbreviates: Test System: AMES SALMONELLA TYPHIMURIUM, Strain/Indicator: TA1537, Metabolic Activation: NONE, Method: PREINCUBATION
Setting [14] is: Test System: AMES SALMONELLA TYPHIMURIUM, Strain/Indicator: TA1537, Metabolic Activation: RAT, LIVER, S-9, AROCLOR 1254 (10%), Method: PREINCUBATION

Structures are written as SMILES. Activity calls are given as the source filed them. The rule behind the calls is not given here.

Regarding `O=[N+]([O-])c1cc(Cl)cc(Sc2cc(Cl)cc([N+](=O)[O-])c2O)c1O`, the mutagenic call reads like this: under setting [1], “inactive; negative”; (Test System: AMES SALMONELLA TYPHIMURIUM, Strain/Indicator: TA98, Metabolic Activation: RAT, LIVER, S-9, KANECHLOR 400, Method: STANDARD PLATE) “inactive; negative”; under setting [2], “inactive; negative”; (Test System: AMES SALMONELLA TYPHIMURIUM, Strain/Indicator: TA100, Metabolic Activation: RAT, LIVER, S-9, KANECHLOR 400, Method: STANDARD PLATE) “inactive; negative”; (Test System: AMES SALMONELLA TYPHIMURIUM, Strain/Indicator: TA1535, Metabolic Activation: NONE, Method: STANDARD PLATE) “inactive; negative”; (Test System: AMES SALMONELLA TYPHIMURIUM, Strain/Indicator: TA1535, Metabolic Activation: RAT, LIVER, S-9, KANECHLOR 400, Method: STANDARD PLATE) “inactive; negative”. For the same compound, the mutagenic call reads like this: (Test System: AMES SALMONELLA TYPHIMURIUM, Strain/Indicator: TA1537, Metabolic Activation: NONE, Method: STANDARD PLATE) “inactive; negative”; (Test System: AMES SALMONELLA TYPHIMURIUM, Strain/Indicator: TA1537, Metabolic Activation: RAT, LIVER, S-9, KANECHLOR 400, Method: STANDARD PLATE) “inactive; negative”; (Test System: AMES SALMONELLA TYPHIMURIUM, Strain/Indicator: TA1538, Metabolic Activation: NONE, Method: STANDARD PLATE) “inactive; negative”; (Test System: AMES SALMONELLA TYPHIMURIUM, Strain/Indicator: TA1538, Metabolic Activation: RAT, LIVER, S-9, KANECHLOR 400, Method: STANDARD PLATE) “inactive; negative”.

For `COc1cccc2c1C(=O)c1c(O)c3c(c(O)c1C2=O)C[C@@](O)(C(C)=NNC(=O)c1ccccc1)C[C@@H]3O[C@H]1C[C@H](N)[C@H](O)[C@H](C)O1`, the mutagenic call (Test System: AMES SALMONELLA TYPHIMURIUM, Strain/Indicator: TA97, Metabolic Activation: NONE, Method: STANDARD PLATE) is “inactive; negative”; the mutagenic call under setting [1] is “active; positive”; the mutagenic call under setting [2] was “inactive; negative”; the mutagenic call (Test System: AMES SALMONELLA TYPHIMURIUM, Strain/Indicator: TA104, Metabolic Activation: NONE, Method: STANDARD PLATE) was “inactive; negative”; the mutagenic call (Test System: AMES SALMONELLA TYPHIMURIUM, Strain/Indicator: TA2637, Metabolic Activation: NONE, Method: STANDARD PLATE) is “active; positive”.

Regarding `C=C1/C(=C\C=C2/CCC[C@]3(C)[C@@H]([C@H](C)CCCC(C)(C)O)CC[C@@H]23)C[C@@H](O)C[C@@H]1O`, the mutagenic call (End Point: IN VIVO CHROMOSOMAL ABERRATIONS, Test System: BONE MARROW CELLS, Species: RAT, Strain/Sex: WISTAR, Route: ORAL) is “inactive; negative”.

`NCCO`: the mutagenic call under setting [3] was “inactive; negative”; the mutagenic call under setting [4] is “inactive; negative”; the mutagenic call (Test System: AMES SALMONELLA TYPHIMURIUM, Strain/Indicator: TA98, Metabolic Activation: RAT LIVER S-9, PHENOBARBITAL AND BETA-NAPHTHOFLAVONE, Method: PREINCUBATION) is “inactive; negative”; the mutagenic call under setting [5] was “inactive; negative”; the mutagenic call under setting [6] is “inactive; negative”; the mutagenic call under setting [7] is “inactive; negative”. In addition, the mutagenic call is, setting by setting: (Test System: AMES SALMONELLA TYPHIMURIUM, Strain/Indicator: TA100, Metabolic Activation: RAT LIVER S-9, PHENOBARBITAL AND BETA-NAPHTHOFLAVONE, Method: PREINCUBATION) “inactive; negative”; under setting [8], “inactive; negative”; under setting [9], “inactive; negative”; under setting [10], “inactive; negative”; (Test System: AMES SALMONELLA TYPHIMURIUM, Strain/Indicator: TA1535, Metabolic Activation: RAT LIVER S-9, PHENOBARBITAL AND BETA-NAPHTHOFLAVONE, Method: PREINCUBATION) “inactive; negative”; under setting [11], “inactive; negative”. Further, the mutagenic call runs as follows: under setting [12], “inactive; negative”; under setting [13], “inactive; negative”; (Test System: AMES SALMONELLA TYPHIMURIUM, Strain/Indicator: TA1537, Metabolic Activation: RAT LIVER S-9, PHENOBARBITAL AND BETA-NAPHTHOFLAVONE, Method: PREINCUBATION) “inactive; negative”; under setting [14], “inactive; negative”; (Test System: AMES SALMONELLA TYPHIMURIUM, Strain/Indicator: TA1538, Metabolic Activation: NONE, Method: PREINCUBATION) “inactive; negative”; (Test System: AMES SALMONELLA TYPHIMURIUM, Strain/Indicator: TA1538, Metabolic Activation: RAT LIVER S-9, PHENOBARBITAL AND BETA-NAPHTHOFLAVONE, Method: PREINCUBATION) “inactive; negative”. In addition, the mutagenic call (Test System: E.COLI, Strain/Indicator: WP2UVRA, Metabolic Activation: NONE, Method: PREINCUBATION) was “active; positive” and the mutagenic call (Test System: E.COLI, Strain/Indicator: WP2UVRA, Metabolic Activation: RAT LIVER S-9, PHENOBARBITAL AND BETA-NAPHTHOFLAVONE, Method: PREINCUBATION) is “inactive; negative”.

`COC(=O)[C@@]12Oc3ccc(-c4ccc5c(c4O)C(O)=C4C(=O)C[C@H](C)[C@@H](O)[C@]4(C(=O)OC)O5)c(O)c3C(O)=C1C(=O)C[C@H](C)[C@H]2O`: the mutagenic call is, setting by setting: under setting [7], “inactive; negative”; (Test System: AMES SALMONELLA TYPHIMURIUM, Strain/Indicator: TA100, Metabolic Activation: RAT, LIVER, S-9, PHENOBARBITAL, Method: PREINCUBATION) “inactive; negative”.

Take `c1ccc(P(c2ccccc2)c2ccccc2)cc1`: the mutagenic call runs as follows: under setting [3], “inactive; negative”; under setting [4], “inactive; negative”; under setting [5], “inactive; negative”; under setting [6], “inactive; negative”; under setting [7], “inactive; negative”; under setting [8], “inactive; negative”. The mutagenic call runs as follows: under setting [9], “inactive; negative”; under setting [10], “inactive; negative”; under setting [11], “inactive; negative”; under setting [12], “inactive; negative”; under setting [13], “inactive; negative”; under setting [14], “inactive; negative”.
